Data set [1] can be described thus: Pharmacokinetics in male SD rats after intravenous and oral administration. It counts as in vivo. The following applies: for F: po 5 mg/kg versus iv 1 mg/kg; for AUC(0-t) / Cmax / Tmax / clearance / half-life / Vd: rat, plasma; for Vd: read-out: Vss. Here is the method:
Preparation of test compound solution: The test compound was formulated with 5% dimethylsulfoxide, 5% Solutol HS 15 and 90% physiological saline to give solution, which was used for oral and intravenous administration.
Male SD rats weighing 190-250 g were randomly divided into two groups, each group had three members; one group received test compound at a dose of 1.0 mg/kg by intravenous injection, the other group received test compound at a dose of 2.5 or 5.0 mg/kg by oral. After dosing, blood samples were collected at time points of 0.0833, 0.25, 0.5, 1.0, 2.0, 4.0, 7.0 and 24 h. Standard curve was plotted based on concentrations of the samples in a suitable range, the concentrations of test compounds in plasma samples were determined by using AB SCIEX API4000 LC-MS/MS in MRM mode. Pharmacokinetic parameters were calculated according to drug concentration-time curve using a noncompartmental method by WinNonLin 6.3 software.

The target of data set [2] is T1, soluble guanylate cyclase (sGC) expressed by CHO-K1-Rat sGC monoclonal cell line (Rattus norvegicus, UniProt P19686+P20595).
T1 construct: expressed in transfected cells; host or cells: CHO-K1
T1 sequence (P19686 1-690): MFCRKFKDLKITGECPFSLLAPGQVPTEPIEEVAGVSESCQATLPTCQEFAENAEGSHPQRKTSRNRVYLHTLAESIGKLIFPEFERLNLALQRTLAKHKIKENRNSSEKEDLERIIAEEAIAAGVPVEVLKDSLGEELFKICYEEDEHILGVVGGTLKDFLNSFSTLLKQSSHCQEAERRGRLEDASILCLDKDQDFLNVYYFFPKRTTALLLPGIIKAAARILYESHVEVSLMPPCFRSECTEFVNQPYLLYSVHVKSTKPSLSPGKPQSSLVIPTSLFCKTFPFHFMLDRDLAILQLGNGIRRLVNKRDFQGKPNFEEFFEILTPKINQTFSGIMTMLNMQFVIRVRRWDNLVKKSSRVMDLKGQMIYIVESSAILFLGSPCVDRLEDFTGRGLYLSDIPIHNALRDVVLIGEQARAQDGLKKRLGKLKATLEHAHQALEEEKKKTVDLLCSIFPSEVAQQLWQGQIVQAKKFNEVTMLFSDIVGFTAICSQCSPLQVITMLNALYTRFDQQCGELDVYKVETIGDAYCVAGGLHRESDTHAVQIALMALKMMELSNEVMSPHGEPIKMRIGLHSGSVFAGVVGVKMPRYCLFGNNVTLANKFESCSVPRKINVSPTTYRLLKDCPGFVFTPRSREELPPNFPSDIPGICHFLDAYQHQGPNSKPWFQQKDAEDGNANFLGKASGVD
T1 sequence (P20595 1-619): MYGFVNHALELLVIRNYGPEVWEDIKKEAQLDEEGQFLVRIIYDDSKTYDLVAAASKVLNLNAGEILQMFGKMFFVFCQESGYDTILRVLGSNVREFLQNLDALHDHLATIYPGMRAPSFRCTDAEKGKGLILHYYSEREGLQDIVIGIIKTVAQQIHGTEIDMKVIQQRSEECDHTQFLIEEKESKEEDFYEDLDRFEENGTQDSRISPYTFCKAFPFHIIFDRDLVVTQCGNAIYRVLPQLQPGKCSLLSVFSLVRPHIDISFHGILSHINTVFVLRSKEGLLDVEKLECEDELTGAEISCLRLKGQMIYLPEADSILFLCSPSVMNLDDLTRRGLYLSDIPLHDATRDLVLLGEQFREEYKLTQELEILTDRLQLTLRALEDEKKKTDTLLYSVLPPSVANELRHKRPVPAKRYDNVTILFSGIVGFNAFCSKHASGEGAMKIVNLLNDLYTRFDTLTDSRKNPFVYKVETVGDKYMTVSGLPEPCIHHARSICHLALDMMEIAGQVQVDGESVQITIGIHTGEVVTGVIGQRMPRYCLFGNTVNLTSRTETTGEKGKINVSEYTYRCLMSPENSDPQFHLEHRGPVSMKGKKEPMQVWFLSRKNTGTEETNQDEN
Description: Effect on recombinant guanylate cyclase reporter cell line (CHO-K1-Rat sGC, Cisbio cGMP HTRF). It is filed as cell-based. To be noted: activating soluble guanylate cyclase. From the text: Transfection of Soluble Guanylate Cyclase (sGC) gene into CHO-K1 cells and selection of cells with stably and highly expressed sGC: Rat sGCα1 and Rat sGCβ1 Genes were synthesized, and then pcDNA3.1(+)-rat sGCα1 and pcDNA3.1/Hygro (+)-rat sGCβ1 plasmid were constructed; the plasmid was co-transfected into CHO-K1 cells, and a positive clone cell line stably expressing CHO-K1-Rat sGC was selected using the Cisbio cGMP HTRF assay kit.
The activity of the compound on the CHO-K1-Rat sGC monoclonal cell line was determined: The CHO-K1-Rat sGC monoclonal cell line was cultured, and used for test operation at degree of fusion of about 70% to 90%. The cells were resuspended in complete medium after TrypLE digestion; the cells were inoculated in a 384-well (low volume tissues culture treated) cell culture plate at a seeding density of 7500/well in 25 μL of complete medium and incubated at 37° C. in 5% CO2 atmosphere for 20 hours; the test compounds were dissolved and dilute with DMSO to give 10 concentration gradients (2× working concentration); 384-well cell culture plates were centrifugated (200 g) for 3 seconds by inversion at RT, medium was removed; The test compounds in each different concentration gradient and corresponding reagent were added into each cell well according to the detection process of Cisbio cGMP HTRF assay kit. The data were collected with Envision HTRF detector and the EC50 value of each compound in activating soluble guanylate cyclase was calculated.

`COC(=O)N(C)c1c(N)nc(-c2nn(Cc3ccccc3F)c3c(F)cc(F)cc23)nc1N` [Example 2, methyl (4,6-diamino-2-(5,7-difluoro-1-(2-fluorobenzyl)-1H-indazol-3-yl)pyrimidin-5-yl)(methyl)carbamate] gave a F in data set [1] of 138.6%. In data set [1] (iv, 1 mg/kg), the AUC(0-t) amounted to 2020 ng·h/mL, the Cmax is 680 ng/mL, the Tmax was 0.083 h and the clearance worked out at 6.16 mL/min/kg. Further, in data set [1] (iv, 1 mg/kg), the half-life was 3.7 h and the Vd was determined as 1.88 L/kg. Further, in data set [1] (po, 5 mg/kg), the exposure AUC(0-t) amounted to 14000 ng·h/mL, the concentration peaked (Cmax) at 1130 ng/mL, the Tmax was determined as 2 h and the half-life was 3.61 h. Moreover, the EC50 in data set [2] was 220 nM.

`COC(=O)N(C)c1c(N)nc(-c2nn(Cc3ccccc3F)c3cc(F)ccc23)nc1N` [Example 6, methyl (4,6-diamino-2-(6-fluoro-1-(2-fluorobenzyl)-1H-indazol-3-yl)pyrimidin-5-yl)(methyl)carbamate] gave a F in data set [1] of 135.3%. In addition, in data set [1] (iv, 1 mg/kg), the AUC(0-t) was 2700 ng·h/mL, the concentration peaked (Cmax) at 1310 ng/mL, the Tmax came out at 0.083 h and the clearance is 6.18 mL/min/kg. In data set [1] (iv, 1 mg/kg), the half-life is 1.57 h and the Vd worked out at 1.07 L/kg. Further, in data set [1] (po, 5 mg/kg), the AUC(0-t) was 18300 ng·h/mL, the highest level (Cmax) was 2480 ng/mL, the Tmax turned out to be 1.33 h and the half-life is 2.98 h. For the same compound, the EC50 in data set [2] was determined as 230 nM.

For the compound `COC(=O)N(C)c1c(N)nc(-c2nn(Cc3ccccc3F)c3c(F)cccc23)nc1N` [Example 11, methyl (4,6-diamino-2-(7-fluoro-1-(2-fluorobenzyl)-1H-indazol-3-yl)pyrimidin-5-yl)(methyl)carbamate], the F in data set [1] was determined as 107.3%. Besides, in data set [1] (iv, 1 mg/kg), the AUC(0-t) came out at 1220 ng·h/mL, the concentration peaked (Cmax) at 834 ng/mL, the Tmax turned out to be 0.083 h and the clearance stood at 13.4 mL/min/kg. Besides, in data set [1] (iv, 1 mg/kg), the half-life is 1.37 h and the Vd was 1.35 L/kg. Moreover, in data set [1] (po, 5 mg/kg), the AUC(0-t) was 6580 ng·h/mL, the peak level (Cmax) was 1080 ng/mL, the Tmax came to 1.67 h and the half-life is 2.45 h. In addition, in data set [2], the EC50 came out at 82 nM.

Take `Nc1nc(-c2nn(Cc3ccccc3F)c3c(F)cccc23)nc(N)c1N1CCCS1(=O)=O` [Example 13, 2-(4,6-diamino-2-(7-fluoro-1-(2-fluorobenzyl)-1H-indazol-3-yl)pyrimidin-5-yl)isothiazolidine 1,1-dioxide]: the F in data set [1] came to 109.8%. Also, in data set [1] (iv, 1 mg/kg), the AUC(0-t) was 921 ng·h/mL, the Cmax was found to be 778 ng/mL, the Tmax was determined as 0.083 h and the half-life is 0.916 h. Also, the Vd in data set [1] (iv, 1 mg/kg) is 6.38 L/kg. In data set [1] (po, 5 mg/kg), the AUC(0-t) came out at 5010 ng·h/mL, the concentration peaked (Cmax) at 1170 ng/mL, the Tmax is 1.67 h and the half-life was 1.57 h. For the same compound, in data set [2], the EC50 was found to be 36 nM.

In turn, `Nc1nc(-c2nn(Cc3ccccc3F)c3c(F)cccc23)nc(N)c1N1CCOC1=O` [Example 15, 3-(4,6-diamino-2-(7-fluoro-1-(2-fluorobenzyl)-1H-indazol-3-yl)pyrimidin-5-yl)oxazolidin-2-one] registered a F in data set [1] of 86%. Further, in data set [1] (iv, 1 mg/kg), the AUC(0-t) amounted to 2060 ng·h/mL, the Cmax is 981 ng/mL, the Tmax was 0.083 h and the clearance was 7.91 mL/min/kg. Besides, in data set [1] (iv, 1 mg/kg), the half-life was 5.56 h and the Vd worked out at 2.03 L/kg. Besides, in data set [1] (po, 5 mg/kg), the AUC(0-t) turned out to be 8860 ng·h/mL, the Cmax was 768 ng/mL, the Tmax stood at 3 h and the half-life was 3.13 h. The EC50 in data set [2] was 300 nM.

With `OCCNc1nc(-c2nn(Cc3ccccc3F)c3c(F)cccc23)ncc1F` [Example 60, 2-((5-fluoro-2-(7-fluoro-1-(2-fluorobenzyl)-1H-indazol-3-yl)pyrimidin-4-yl)amino)ethanol], the EC50 in data set [2] stood at 120 nM.

On to `OCCN1CCN(c2nc(-c3nn(Cc4ccccc4F)c4c(F)cccc34)ncc2F)CC1` [Example 62, 2-(4-(5-fluoro-2-(7-fluoro-1-(2-fluorobenzyl)-1H-indazol-3-yl)pyrimidin-4-yl)piperazin-1-yl)ethanol], for which, in data set [2], the EC50 turned out to be 75 nM.

The term AUC(0-t) denotes the area under the concentration-time curve up to a stated or last time point. Low values mean less exposure, high ones more exposure. Usually Cmax stands for the maximum level reached in the sampled fluid or tissue. As usually defined, the Tmax is the time from dosing to the highest level. Usually half-life stands for the time needed for the level to fall by half in the phase considered. Read a high half-life as slow decline. One may read the EC50 as the concentration that produces a half-maximal response.

(Values after US11242335B2, “Fluorine-substituted indazole compounds and uses thereof” (SUNSHINE LAKE PHARMA CO., LTD., priority 2017, dated 2022).)
